Laboratory results published in patent EP4778519A1, “THERAPEUTIC OR PROPHYLACTIC AGENT FOR FRONTOTEMPORAL LOBAR DEGENERATION ACCOMPANIED BY ACCUMULATION OF TDP-43 (FTLD-TDP)” (Socium Inc., priority 2023, dated 2025).
“Also recorded” adds a separate entry of the source. Where two headings read alike, the source gives them in different places.

Columns and labels:
[1] = cited from earlier work
[2] = cited from earlier work; remark: listed apart in the source
[3] = Reported human pharmacokinetics of D-cycloserine (literature); type: in vivo, humans; conditions: estimated; 15 mg orally administered twice daily
TDP-43 [4] = experiment: Soluble and insoluble fractions of TDP-43 in TDP-43-transfected Neuro2a cells, Western blot (Example 2); type: cell-based, Mouse; conditions: 10 µmol/L added 6 hours after transfection, cultured for 12 hours; for soluble fractions versus insoluble fractions of TDP-43: Figure 5; for proportion of insoluble fractions based on a total number of soluble fractions and insoluble fractions of TDP-43: Figure 6
Protocol: (§1) Mouse neuroblastoma (Neuro2a) cells were seeded on a dish. The Neuro2a cells were cultured in a culture medium containing DMEM+10% FBS at 37°C in the presence of 5% CO2. On the first day after seeding, differentiation into neurons was initiated. Differentiation into neurons was performed in a culture medium containing DMEM+2% FBS+20 µmol/L retinoic acid. On the fourth day after seeding, cells were transfected with synthesized TDP-43 mRNA by a lipofection method. Cells were sampled at 6 hours, 9 hours, 12 hours, 15 hours, 18 hours, and 21 hours after transfection. […] For sampling, cells were lysed in an RIPA buffer and centrifuged at 22,000xg for 30 minutes at 4°C, the supernatant was used as the soluble fraction, the precipitate was used as the insoluble fraction, and equal volumes of a 2×SDS sample buffer were added to the respective fractions and heated at 95°C for 5 minutes to prepare electrophoresis samples. The electrophoresis samples were subjected to electrophoresis using a polyacrylamide gel, TDP-43 was then transferred to a PVDF membrane. TDP-43 was detected through chemiluminescence using anti-TDP-43 antibodies as primary antibodies and HRP-conjugated anti-rabbit antibodies as secondary antibodies. […] The insoluble fractions of TDP-43 indicate the aggregation of TDP-43.
Neuro2a cells were seeded on a dish. On the first day after seeding, differentiation into neurons was initiated. On the fourth day after seeding, cells were transfected with the TDP-43 gene.

TDP-43 [5] = experiment: Soluble and insoluble fractions of TDP-43 in motor neurons derived from iPS cells of healthy subjects, Western blot (Example 3); type: cell-based, human; conditions: 10 µmol/L, cultured for 20 days, Figure 7
Protocol: 100 µL of an EHS-gel basement membrane matrix (commercially available from FUJIFILM Wako Pure Chemical Corporation) was added to 12.5 mL of DMEM (Dulbecco's Modified Eagle Medium, commercially available from FUJIFILM Wako Pure Chemical Corporation) and mixed, and the mixture was added to a 24-well plate at 600 µL per well. The plate was left at room temperature for 2 hours, and the solution was then removed from the wells. Next, 600 µL of DMEM was added to each well, and the plate was left at room temperature for 2 hours.
Motor neurons derived from iPS cells of healthy subjects and motor neurons derived from iPS cells of ALS patients were obtained from iXCells Biotechnologies. The motor neurons were quickly thawed in a thermostatic oven at 37°C and suspended in a motor neuron maintenance culture medium (iXCells Biotechnologies). […]
The soluble protein fractions and the insoluble protein fractions were subjected to SDS-PAGE, and the proteins were transferred to a PVDF membrane. […] Next, the PVDF membrane was washed three times with a buffer solution, 1 mL of a luminescence reagent (ImmunoStar LD, commercially available from FUJIFILM Wako Pure Chemical Corporation) was then used to induce luminescence from the labeled secondary antibodies, and the PVDF membrane was imaged.

TDP-43 [6] = experiment: Soluble and insoluble fractions of TDP-43 in motor neurons derived from iPS cells of ALS patients, Western blot (Example 3); type: cell-based, human; conditions: 10 µmol/L, cultured for 20 days; for bands for insoluble fractions of TDP-43: Figure 7; for average proportion of insoluble fractions of TDP-43: three experiments, Figure 8
[7] = system: Neuro2a cells transfected with the TDP-43 gene; experiment: Inhibition of cell death in neuron-differentiated Neuro2a cells transfected with the TDP-43 gene (Example 1); type: cell-based, Mouse; conditions: evaluated 7 days after transfection, Figures 3 and 4
Protocol: as §1, with “TDP-43. […]” for “TDP-43.”
The proportion of dead cells was evaluated 7 days after the cells were transfected with the TDP-43 gene.

For `N[C@@H]1CONC1=O` [D-cycloserine, (4R)-4-Amino-1,2-oxazolidin-3-one], the side effects ([1]; 150 mg administered to humans) is listed as “headaches”, the side effects ([1]; 250 mg administered to humans to treat tuberculosis) is listed as “serious side effects such as epileptiform seizure and mental confusion” and the Cmax ([2]; 15 mg orally administered to humans, read-out: maximum blood concentration (Cmax)) is listed as roughly 5.6 µM. For the same compound, the half-life ([2]; in vivo) was “about 10 hours”, the trough value [3] was greater than 128 nmol/L and the “soluble fractions versus insoluble fractions of TDP-43” value (TDP-43 [4]) was “the number of soluble fractions of TDP-43 was larger than the number of insoluble fractions of TDP-43”. For the same compound, the “proportion of insoluble fractions based on a total number of soluble fractions and insoluble fractions of TDP-43” value (TDP-43 [4]) was “less than half”, the “bands for insoluble fractions of TDP-43” value (TDP-43 [5]) was “bands for insoluble fractions were unclear” and the “bands for insoluble fractions of TDP-43” value (TDP-43 [6]) was “bands for insoluble fractions were unclear”. The “average proportion of insoluble fractions of TDP-43” value (TDP-43 [6]) was “about 17.4%” and the “effect of inhibiting cell death” value [7] was “cell death was inhibited; also recorded: exhibited an effect of inhibiting cell death in a concentration-dependent manner”.
In the case of `N[C@H]1CONC1=O` [L-cycloserine, (4S)-4-amino-1,2-oxazolidin-3-one], the “soluble fractions versus insoluble fractions of TDP-43” value (TDP-43 [4]) is reported as “the number of soluble fractions of TDP-43 was larger than the number of insoluble fractions of TDP-43”, the “proportion of insoluble fractions based on a total number of soluble fractions and insoluble fractions of TDP-43” value (TDP-43 [4]) is reported as “less than half” and the “effect of inhibiting cell death” value [7] is reported as “exhibited an effect of inhibiting cell death in a concentration-dependent manner”.
With `CCCN(CCC)CCc1cccc2c1CC(=O)N2` [ropinirole] the “bands for insoluble fractions of TDP-43” value (TDP-43 [5]) was “bands for insoluble fractions were unclear”, the “bands for insoluble fractions of TDP-43” value (TDP-43 [6]) was “bands for insoluble fractions were unclear” and the “average proportion of insoluble fractions of TDP-43” value (TDP-43 [6]) was “about 19.3%”.
